One test deals with T1, PDI-M (PtPDI-M) (Populus trichocarpa, UniProt B9IAL5).
T1 construct: gene POPTR_014G160000; pET-15b, His-tagged; E. coli BL21(DE3) pSBET; a°-a-b organisation
T1 sequence (B9IAL5 25-434): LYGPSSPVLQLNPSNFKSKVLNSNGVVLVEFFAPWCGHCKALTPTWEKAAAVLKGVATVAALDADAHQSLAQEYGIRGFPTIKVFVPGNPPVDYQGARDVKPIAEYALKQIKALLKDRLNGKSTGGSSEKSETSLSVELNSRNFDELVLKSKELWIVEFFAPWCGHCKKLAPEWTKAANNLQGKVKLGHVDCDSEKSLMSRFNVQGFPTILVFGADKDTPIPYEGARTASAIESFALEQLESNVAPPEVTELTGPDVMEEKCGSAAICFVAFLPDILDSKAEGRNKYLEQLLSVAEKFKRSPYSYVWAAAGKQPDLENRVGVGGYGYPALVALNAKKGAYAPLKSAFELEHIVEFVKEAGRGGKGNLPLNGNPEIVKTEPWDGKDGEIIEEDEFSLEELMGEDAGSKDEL
In words: NADPH/AtNTRB-coupled DTNB reduction, absorbance at […] nm. Type of test: biochemical. Particulars: 200 μM NADPH, 2 μM AtNTRB, 100 μM DTNB, 0.2 μM PDI, pH 8.0, 25°C.

Another test has as its target T2, PDI-A (PtPDI-A) (Populus trichocarpa, UniProt B9HQP9).
T2 construct: gene POPTR_009G004500; pET-15b, His-tagged; E. coli BL21(DE3) pSBET; purified anaerobically; ca 15 kDa; dimeric and probable octameric forms; WCKHC active site
T2 sequence (B9HQP9 27-147): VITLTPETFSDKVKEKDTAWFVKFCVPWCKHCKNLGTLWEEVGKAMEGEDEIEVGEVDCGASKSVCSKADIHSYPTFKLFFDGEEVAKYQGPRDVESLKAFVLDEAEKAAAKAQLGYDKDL
In words: UV-visible absorption, iron and sulfide quantification, size-exclusion chromatography. Type of test: binding. Particulars: as isolated after E. coli expression, anaerobic purification; pH 8.0; cluster proposed to bridge a dimer; cluster type not definitively assigned. For orientation: In gel filtration, larger molecules generally elute earlier.

Results on two compounds are retold here after paper PMC5375154, “Atypical protein disulfide isomerases (PDI): Comparison of the molecular and catalytic properties of poplar PDI-A and PDI-M with PDI-L1A” (PLoS ONE, 2017).

Structures are written as SMILES.

For the compound `O=C(O)c1cc(SSc2ccc([N+](=O)[O-])c(C(=O)O)c2)ccc1[N+](=O)[O-]` [DTNB], the DTNB reduction activity result on PDI-M (PtPDI-M) was “PDI-L1a was more efficient than PDI-M and PDI-A was inactive (Fig 2C)”.
As to `[S]1[Fe][S][Fe]1` [[Fe2S2] cluster], at PDI-A (PtPDI-A), the “UV-visible absorption, iron and sulfide quantification, size-exclusion chromatog” value is “results could be consistent with PDI-A binding a [Fe2S2] cluster into a dimer”.
